This is an account of results in patent US9284333B2, “Fused pyrroledicarboxamides and their use as pharmaceuticals” (SANOFI, priority 2012, dated 2016).

SMILES strings stand for the structures. pIC50: −log10 of the molar value.

For the experiment, the target named is Human TASK-1 channels (Homo sapiens (Human), UniProt O14649). Put plainly: Determination of the activity on the TASK-1 channel in Xenopus oocytes (two-microelectrode voltage clamp). Type of experiment: cell-based. To be noted: for pIC50: human TASK-1 expressed in Xenopus oocytes, room temperature, read-out: IC50 value for TASK-1 inhibition; for inhibition at 5 µM: compound concentration 5 μM. An outline of the steps: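 Current during 500 ms pulses to 40 mV from a −90 mV hold was recorded in oocytes expressing human TASK-1 for two days after cRNA injection. Compounds were added cumulatively to the ND96 bath (pH 7.4, room temperature). IC50 came from dose-response fitting of inhibition relative to pre-compound current.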
Human TASK-1 channels, sequence (O14649 whole entry): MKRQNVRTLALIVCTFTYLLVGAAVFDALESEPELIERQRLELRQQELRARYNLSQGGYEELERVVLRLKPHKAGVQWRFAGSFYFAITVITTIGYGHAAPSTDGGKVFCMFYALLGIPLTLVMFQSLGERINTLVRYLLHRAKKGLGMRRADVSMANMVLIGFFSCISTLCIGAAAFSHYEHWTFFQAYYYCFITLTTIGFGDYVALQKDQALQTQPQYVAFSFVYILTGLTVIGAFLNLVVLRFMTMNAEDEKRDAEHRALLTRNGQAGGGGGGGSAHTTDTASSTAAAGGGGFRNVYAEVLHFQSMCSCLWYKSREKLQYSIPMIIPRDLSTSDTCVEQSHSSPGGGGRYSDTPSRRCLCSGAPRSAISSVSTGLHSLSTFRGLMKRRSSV

For `CC[C@@H](NC(=O)c1cc(C(=O)N[C@H](C)C2CC2)n2c1COCC2)c1ccc(C(F)(F)F)nc1` [16nz, 3,4-Dihydro-1H-pyrrolo[2,1-c][1,4]oxazine-6,8-dicarboxylic acid 6-[((R)-1-cyclopropyl-ethyl)-amide] 8-{[(R)-1-(6-trifluoromethyl-pyridin-3-yl)-propyl]-amide}], the pIC50 (in general, −log10 of the IC50, conventionally taken in molar units) was 5.66.

As to `CC[C@@H](NC(=O)c1cc(C(=O)N2CCC[C@@H]2C(F)(F)F)n2c1COCC2)c1ccc(C(F)(F)F)nc1` [16o, 6-((R)-2-Trifluoromethyl-pyrrolidine-1-carbonyl)-3,4-dihydro-1H-pyrrolo[2,1-c][1,4]oxazine-8-carboxylic acid [(R)-1-(6-trifluoromethyl-pyridin-3-yl)-propyl]-amide], the pIC50 is 6.39.

As for `CC(C)[C@@H](NC(=O)c1cc(C(=O)N2CCC[C@@H]2C)n2c1COCC2)c1ccc(F)cc1` [16p, 6-((S)-2-Methyl-pyrrolidine-1-carbonyl)-3,4-dihydro-1H-pyrrolo[2,1-c][1,4]oxazine-8-carboxylic acid [(R)-1-(4-fluoro-phenyl)-2-methyl-propyl]-amide], the pIC50 was 6.42.

As to `CC[C@@H](NC(=O)c1cc(C(=O)NC(C2CC2)C2CC2)n2c1COCC2)c1ccc(C(F)(F)F)nc1` [16pa, 3,4-Dihydro-1H-pyrrolo[2,1-c][1,4]oxazine-6,8-dicarboxylic acid 6-dicyclopropylmethyl-amide 8-{[(R)-1-(6-trifluoromethyl-pyridin-3-yl)-propyl]-amide}], the pIC50 is 5.82. Still for that read-out and setting: under `CC[C@@H](NC(=O)c1cc(C(=O)N[C@H](CC)c2cccc(OC)n2)n2c1COCC2)c1ccc(C(F)(F)F)nc1` [16pb, 3,4-Dihydro-1H-pyrrolo[2,1-c][1,4]oxazine-6,8-dicarboxylic acid 6-{[(R)-1-(6-methoxy-pyridin-2-yl)-propyl]-amide} 8-{[(R)-1-(6-trifluoromethyl-pyridin-3-yl)-propyl]-amide}] stands 6.28. `CC[C@@H](NC(=O)c1cc(C(=O)N2CCCCC2C)n2c1COCC2)c1ccc(C(F)(F)F)nc1` (stereo partly drawn) [16pc, 6-(2-Methyl-piperidine-1-carbonyl)-3,4-dihydro-1H-pyrrolo[2,1-c][1,4]oxazine-8-carboxylic acid [(R)-1-(6-trifluoromethyl-pyridin-3-yl)-propyl]-amide]: the inhibition (as a rule, the relative decrease from the control value, in per cent) at 5 µM was 53%. Same read-out and setting: the result for `CC[C@@H](NC(=O)c1cc(C(=O)N2CCC2C)n2c1COCC2)c1ccc(C(F)(F)F)nc1` (stereo partly drawn) [16pe, 6-(2-Methyl-azetidine-1-carbonyl)-3,4-dihydro-1H-pyrrolo[2,1-c][1,4]oxazine-8-carboxylic acid [(R)-1-(6-trifluoromethyl-pyridin-3-yl)-propyl]-amide] reads 69%.

`CC[C@@H](NC(=O)c1cc(C(=O)N2CCC[C@@H]2C)n2c1COCC2)c1ncccc1Cl` [16pf]: the pIC50 was 7.00. On the same count and under the same terms, the result for `CC[C@@H](NC(=O)c1cc(C(=O)N2CCC[C@@H]2C)n2c1COCC2)c1ccc(Cl)cc1` [16pg, 6-((S)-2-Methyl-pyrrolidine-1-carbonyl)-3,4-dihydro-1H-pyrrolo[2,1-c][1,4]oxazine-8-carboxylic acid [(R)-1-(4-chloro-phenyl)-propyl]-amide] reads 6.72; that for `CC[C@@H](NC(=O)c1cc(C(=O)N2CCC[C@@H]2C)n2c1COCC2)c1ccccn1` [16ph, 6-((S)-2-Methyl-pyrrolidine-1-carbonyl)-3,4-dihydro-1H-pyrrolo[2,1-c][1,4]oxazine-8-carboxylic acid ((R)-1-pyridin-2-yl-propyl)-amide], 6.19. For the compound `CC[C@@H](NC(=O)c1cc(C(=O)N2CCC[C@@H]2C)n2c1COC(C)(C)C2)c1ccc(C(F)(F)F)nc1` [16pi, 3,3-Dimethyl-6-((S)-2-methyl-pyrrolidine-1-carbonyl)-3,4-dihydro-1H-pyrrolo[2,1-c][1,4]oxazine-8-carboxylic acid [(R)-1-(6-trifluoromethyl-pyridin-3-yl)-propyl]-amide], the pIC50 is 6.07. On the same count and under the same terms, the result for `CC[C@@H](NC(=O)c1cc(C(=O)N2CCC[C@@H]2c2cnccn2)c2n1CCOC2)c1ccc(F)cc1F` [16pj, 8-((R)-2-Pyrazin-2-yl-pyrrolidine-1-carbonyl)-3,4-dihydro-1H-pyrrolo[2,1-c][1,4]oxazine-6-carboxylic acid [(R)-1-(2,4-difluoro-phenyl)-propyl]-amide] reads 5.96. For `CC(C)[C@@H](NC(=O)c1cc(C(=O)N2CCC[C@@H]2C)c2n1CCOC2)c1ccc(C(F)(F)F)nc1` [16po, 8-((S)-2-Methyl-pyrrolidine-1-carbonyl)-3,4-dihydro-1H-pyrrolo[2,1-c][1,4]oxazine-6-carboxylic acid [(R)-2-methyl-1-(6-trifluoromethyl-pyridin-3-yl)-propyl]-amide], the inhibition at 5 µM worked out at 71%. In the case of `CC[C@@H](NC(=O)c1cc(C(=O)NCc2c(C)noc2C)n2c1COCC2)c1ccccc1` [16pq, 3,4-Dihydro-1H-pyrrolo[2,1-c][1,4]oxazine-6,8-dicarboxylic acid 6-[(3,5-dimethyl-isoxazol-4-ylmethyl)-amide] 8-[((R)-1-phenyl-propyl)-amide]], the pIC50 was 6.19. On the same count and under the same terms, the result for `CC[C@@H](NC(=O)c1cc(C(=O)N2CCC[C@@H]2C)n2c1COCC2)c1ccccc1Cl` [16q, 6-((S)-2-Methyl-pyrrolidine-1-carbonyl)-3,4-dihydro-1H-pyrrolo[2,1-c][1,4]oxazine-8-carboxylic acid [(R)-1-(2-chloro-phenyl)-propyl]-amide] reads 7.19; that for `CC[C@@H](NC(=O)c1cc(C(=O)N2CCC[C@@H]2C)n2c1COCC2)c1cccnc1C(F)(F)F` [16r, 6-((S)-2-Methyl-pyrrolidine-1-carbonyl)-3,4-dihydro-1H-pyrrolo[2,1-c][1,4]oxazine-8-carboxylic acid [(R)-1-(2-trifluoromethyl-pyridin-3-yl)-propyl]-amide], 5.72. In the case of `CC[C@@H](NC(=O)c1cc(C(=O)N2CCC[C@@H]2C)n2c1COCC2)c1ccc(SC)nc1` [16ra, 6-((S)-2-Methyl-pyrrolidine-1-carbonyl)-3,4-dihydro-1H-pyrrolo[2,1-c][1,4]oxazine-8-carboxylic acid [(R)-1-(6-methylsulfanyl-pyridin-3-yl)-propyl]-amide], the inhibition at 5 µM was found to be 60%. Consider `CC[C@@H](NC(=O)c1cc(C(=O)N2CCC[C@@H]2C)n2c1COCC2)c1ccc(Cl)s1` [16rb, 6-((S)-2-Methyl-pyrrolidine-1-carbonyl)-3,4-dihydro-1H-pyrrolo[2,1-c][1,4]oxazine-8-carboxylic acid [(R)-1-(5-chloro-thiophen-2-yl)-propyl]-amide], for which the pIC50 was 6.64. Turning to `CC[C@@H](NC(=O)c1cc(C(=O)N2CCC[C@@H]2C)n2c1COCC2)c1cccs1` [16rc, 6-((S)-2-Methyl-pyrrolidine-1-carbonyl)-3,4-dihydro-1H-pyrrolo[2,1-c][1,4]oxazine-8-carboxylic acid ((R)-1-thiophen-2-yl-propyl)amide], the pIC50 was 6.82. On the same count and under the same terms, under `CC[C@@H](NC(=O)c1cc(C(=O)N2CCC[C@@H]2C)n2c1COCC2)c1ccc(C#N)s1` [16rd, 6-((S)-2-Methyl-pyrrolidine-1-carbonyl)-3,4-dihydro-1H-pyrrolo[2,1-c][1,4]oxazine-8-carboxylic acid [(R)-1-(5-cyano-thiophen-2-yl)-propyl]-amide] stands 6.35; under `CC[C@@H](NC(=O)c1cc(C(=O)N2CCC[C@@H]2C)n2c1COCC2)c1cnc(C#N)c(Cl)c1` [16rf, 6-((S)-2-Methyl-pyrrolidine-1-carbonyl)-3,4-dihydro-1H-pyrrolo[2,1-c][1,4]oxazine-8-carboxylic acid [(R)-1-(5-chloro-6-cyano-pyridin-3-yl)-propyl]-amide], 6.00; under `CC[C@@H](NC(=O)c1cc(C(=O)N2CCC[C@@H]2COC(C)=O)n2c1COCC2)c1ccccc1` [16rg, acetic acid (R)-1-[8-((R)-1-phenyl-propylcarbamoyl)-3,4-dihydro-1H-pyrrolo[2,1-c][1,4]oxazine-6-carbonyl]-pyrrolidin-2-ylmethyl ester], 6.96. The same measure, in the same setting: the result for `CC[C@@H](NC(=O)c1cc(C(=O)N[C@H](CC)c2cccc(O)n2)n2c1COCC2)c1ccccc1` [16rh, 3,4-Dihydro-1H-pyrrolo[2,1-c][1,4]oxazine-6,8-dicarboxylic acid 6-{[(R)-1-(6-hydroxy-pyridin-2-yl)-propyl]-amide} 8-[((R)-1-phenyl-propyl)-amide]] reads 6.62; that for `CC[C@@H](NC(=O)c1cc(C(=O)N[C@H](CC)c2cccc(NS(C)(=O)=O)c2)n2c1COCC2)c1ccccc1` [16ri, 3,4-Dihydro-1H-pyrrolo[2,1-c][1,4]oxazine-6,8-dicarboxylic acid 6-{[(R)-1-(3-methanesulfonylamino-phenyl)-propyl]-amide} 8-[((R)-1-phenyl-propyl)-amide]], 5.37; that for `CC[C@@H](NC(=O)c1cc(C(=O)NC(C)c2cccc(S(=O)(=O)N(C)C)c2)n2c1COCC2)c1ccccc1` (stereo partly drawn) [16rj, 3,4-Dihydro-1H-pyrrolo[2,1-c][1,4]oxazine-6,8-dicarboxylic acid 6-{[1-(3-dimethylsulfamoyl-phenyl)-ethyl]-amide} 8-[((R)-1-phenyl-propyl)-amide]], 5.96. For the compound `CC[C@@H](NC(=O)c1cc(C(=O)N(C)[C@@H](C)C(=O)N(C)C)n2c1COCC2)c1ccccc1` [16rk, 3,4-dihydro-1H-pyrrolo[2,1-c][1,4]oxazine-6,8-dicarboxylic acid 6-[((S)-1-dimethylcarbamoyl-ethyl)methyl-amide] 8-[((R)-1-phenyl-propyl)-amide]], testing at 10 µM (compound concentration 10 μM (footnote a)) gave an inhibition of 70%. Turning to `CC[C@@H](NC(=O)c1cc(C(=O)N(C)[C@@H](C)C(=O)NC(C)C)n2c1COCC2)c1ccccc1` [16rl], the negative logarithm of the IC50 (pIC50) was 5.35. Take `CC[C@@H](NC(=O)c1cc(C(=O)N[C@H](CC)c2cccc(C(=O)O)c2)n2c1COCC2)c1ccccc1` [16rm, 3-((R)-1-{[8-((R)-1-Phenyl-propylcarbamoyl)-3,4-dihydro-1H-pyrrolo[2,1-c][1,4]oxazine-6-carbonyl]-amino}-propyl)-benzoic acid]: the pIC50 is 5.31.
